Reference: the NIST ThermoML archive (doi:10.1021/acs.jced.6b00972)
Numbers after ± are expanded uncertainties.

Key:
[1] = Molar enthalpy of transition or fusion; details: Crystal; DSC
[2] = Crystal; DTA

In the case of `CCOc1cc(C=O)ccc1O` [3-ethoxy-4-hydroxybenzaldehyde], the “Molar enthalpy of transition or fusion” value [1] is reported as 5.64 ± 1.24 kcal/mol and the Normal melting temperature [2] is reported as 78 ± 1.1 °C.
